# In patent publication US10314806B2 (SICHUAN JIUZHANG BIOLOGICAL SCIENCE AND TECHNOLOGY CO., LTD., priority 2014, dated 2019):
# Key:
# Format in all cases: in vivo
# [1] = tested on: Lewis lung cancer; test: Inhibition of mice-transplanted tumor of Lewis lung cancer C57BL/6; settings: for Inhibitory rate / Tumor weight: 12 times
# Description: Animal C57BL/6 mice, body weight 13˜20 g, half male and half female.
# Cell Lines Lewis cells were mice lung cancer cells, and grew adhering to the wall in RPMI-1640 media containing 10% calf serum, 100 U·ml^−1 penicillin, 100 μg·ml^−1 streptomycin, and were cultured in an incubator at 37° C. under 5% CO2, followed by changing the medium and subculturing every two or three days.
# (§1) Viable cells were counted by trypan blue staining. Cell suspension was subcutaneously inoculated at the left forelimb armpit of mice at 0.2 ml/animal (containing about 1×10^7 cells), and after tumor grew to 1 cm×1 cm×1 cm, mice were used in experiment. Mice tumors were aseptically stripped, and washed with Hank's solution thrice, to remove blood, fat and necrotic tissues. Tumors were cut to broken pieces of 1 mm×1 mm×1 mm, and washed with Hank's solution twice, to which physiological saline was added at a ratio of (1 g:3 ml), and then ground in a glass homogenizer and filtered by 80-100 mesh sieve to make a suspension of single cell. Viable cells were counted by trypan blue staining.
# On the second day after inoculation, a dosage of 0.2 ml·10 g^−1 was administrated to each group by peritoneal injection (ip) for successive 12 times, once a day. When the tumor weight in negative control group was more than 1.0 g (tumor volume being about 0.5 cm^3), the experiment was stopped, and mice were sacrificed by cervical vertebrae removal and weighed. Tumors were stripped to calculate inhibitory rate.
# [2] = tested on: EMT-6 breast cancer; test: Inhibition of BABLc mice-transplanted tumor of EMT-6 breast cancer; settings: for Inhibitory rate / Tumor weight: 9 days
# Description: (1) Animal BABLc mice, ♀, body weight 17˜21 g
# Cell Lines EMT-6 cell lines were mice breast cancer cells, and grew adhering to the wall in RPMI-1640 complete media containing 10% calf serum, 1 mmol/L glutamine, 100 U·ml^−1 penicillin and 100 μg·ml^−1 streptomycin, and were cultured in an incubator at 37° C. under 5% CO2, followed by changing the medium and subculturing every two or three days.
# as §1
# On the second day after inoculation, a dosage of 0.2 ml·10 g^−1 was administrated to each group by intraperitoneal injection (ip) for successive 9 days, once a day. When the tumor weight in negative group was more than 1.0 g(tumor volume being about 0.5 cm^3), the experiment was stopped, and mice were sacrificed by cervical vertebrae removal and weighed. Tumors were stripped to calculate inhibitory rate.
# [3] = tested on: human brain glioma; test: Inhibition of mice-transplanted human brain glioma; settings: for Inhibitmy rate / Tumor weight: 15 days, mice
# Description: Human brain glioma cell lines were obtained from Key Laboratory of Transplant Engineering and Immunology, Ministry of health, West China Hospital, Sichuan University.
# (1) Model establishment Mice were divided into groups, 10 mice for each group. The solution of brain glioblastoma cell lines was suitably diluted, and inoculated in cortex of left temporal lobe of mice, respectively.
# Administration and intervention 24 h after inoculation, mice in each group were administrated by intraperitoneal injection. […] Each group was administrated for successive 15 days.
# Determination of tumor inhibitory rate On the last day, the administration was stopped, and all mice were sacrificed and dissected. Tumor tissues were stripped and weighed. Tumor inhibitory rate %=(The mean tumor weight of control group−The mean tumor weight of drug groups)[The mean tumor weight of control group]×100%.
# Statistical method The variance analysis of data was performed using the statistical program software package (SPSS13.0 for Windows), and p<0.05 was considered to be a statistically significant difference.
# [4] = compared with the negative control group, obvious in the dosage groups of 10 mg/kg-60 mg/kg
# [5] = 1 mg·kg^−1 intraperitoneal injection
# [6] = 5 mg·kg^−1 intraperitoneal injection
# [7] = 10 mg·kg^−1 intraperitoneal injection
# [8] = 30 mg·kg^−1 intraperitoneal injection
# [9] = 40 mg·kg^−1 intraperitoneal injection
# [10] = 50 mg·kg^−1 intraperitoneal injection
# [11] = 60 mg·kg^−1 intraperitoneal injection
# [12] = 70 mg·kg^−1 intraperitoneal injection
# [13] = 90 mg·kg^−1 intraperitoneal injection
# [14] = 100 mg·kg^−1 intraperitoneal injection
structure (smiles),measurement,setting,value
O=C(/C=C/c1ccc(O)c(O)c1)O[C@@H]1C[C@](O)(C(=O)O)C[C@@H](O)[C@H]1O [Chlorogenic acid of the present invention],Inhibitory rate,[1]; 1 mg·kg^−1 ip once a day,2.6%
same,Tumor weight,[1]; 1 mg·kg^−1 ip once a day,1.445 ± 0.772 g
same,Inhibitory rate,[1]; 5 mg·kg^−1 ip once a day,14.2%
same,Tumor weight,[1]; 5 mg·kg^−1 ip once a day,1.273 ± 0.258 g
same,Inhibitory rate,[1]; 10 mg·kg^−1 ip once a day,56.5%
same,Tumor weight,[1]; 10 mg·kg^−1 ip once a day,0.646 ± 0.230 g
same,Inhibitory rate,[1]; 20 mg·kg^−1 ip once a day,74.6%
same,Inhibitory rate,[1]; 30 mg·kg^−1 ip once a day,78.3%
same,Tumor weight,[1]; 30 mg·kg^−1 ip once a day,0.322 ± 0.111 g
same,Inhibitory rate,[1]; 40 mg·kg^−1 ip once a day,76.4%
same,Tumor weight,[1]; 40 mg·kg^−1 ip once a day,0.350 ± 0.078 g
same,Inhibitory rate,[1]; 50 mg·kg^−1 ip once a day,65.6%
same,Tumor weight,[1]; 50 mg·kg^−1 ip once a day,0.510 ± 0.241 g
same,Inhibitory rate,[1]; 60 mg·kg^−1 ip once a day,59.2%
same,Tumor weight,[1]; 60 mg·kg^−1 ip once a day,0.605 ± 0.363 g
same,Inhibitory rate,[1]; 70 mg·kg^−1 ip once a day,32.3%
same,Tumor weight,[1]; 70 mg·kg^−1 ip once a day,1.005 ± 0.657 g
same,Inhibitory rate,[1]; 80 mg·kg^−1 ip once a day,24.8%
same,Inhibitory rate,[1]; 90 mg·kg^−1 ip once a day,17.6%
same,Tumor weight,[1]; 90 mg·kg^−1 ip once a day,1.223 ± 0.314 g
same,Inhibitory rate,[1]; 100 mg·kg^−1 ip once a day,11.3%
same,Tumor weight,[1]; 100 mg·kg^−1 ip once a day,1.316 ± 0.352 g
same,inhibitory action on mice-transplanted tumor of Lewis lung cancer C57BL/6,[1]; [4],obviously inhibitory action
same,Inhibitory rate,[2]; 1 mg·kg^−1 ip once a day,26.40%
same,Tumor weight,[2]; 1 mg·kg^−1 ip once a day,0.987 ± 0.154 g
same,Inhibitory rate,[2]; 5 mg·kg^−1 ip once a day,41.16%
same,Tumor weight,[2]; 5 mg·kg^−1 ip once a day,0.789 ± 0.087 g
same,Inhibitory rate,[2]; 10 mg·kg^−1 ip once a day,48.55%
same,Tumor weight,[2]; 10 mg·kg^−1 ip once a day,0.690 ± 0.188 g
same,Inhibitory rate,[2]; 20 mg·kg^−1 ip once a day,69.95%
same,Inhibitory rate,[2]; 30 mg·kg^−1 ip once a day,68.01%
same,Inhibitory rate,[2]; 40 mg·kg^−1 ip once a day,66.37%
same,Tumor weight,[2]; 40 mg·kg^−1 ip once a day,0.451 ± 0.097 g
same,Inhibitory rate,[2]; 50 mg·kg^−1 ip once a day,60.55%
same,Tumor weight,[2]; 50 mg·kg^−1 ip once a day,0.529 ± 0.168 g
same,Inhibitory rate,[2]; 60 mg·kg^−1 ip once a day,49.22%
same,Tumor weight,[2]; 60 mg·kg^−1 ip once a day,0.681 ± 0.156 g
same,Inhibitory rate,[2]; 70 mg·kg^−1 ip once a day,47.95%
same,Tumor weight,[2]; 70 mg·kg^−1 ip once a day,0.698 ± 0.112 g
same,Inhibitory rate,[2]; 80 mg·kg^−1 ip once a day,41.16%
same,Tumor weight,[2]; 80 mg·kg^−1 ip once a day,0.789 ± 0.087 g
same,Inhibitory rate,[2]; 90 mg·kg^−1 ip once a day,35.94%
same,Tumor weight,[2]; 90 mg·kg^−1 ip once a day,0.859 ± 0.0754 g
same,Inhibitory rate,[2]; 100 mg·kg^−1 ip once a day,25.80%
same,Tumor weight,[2]; 100 mg·kg^−1 ip once a day,0.995 ± 0.0256 g
same,inhibitory action on BABLc mice-transplanted tumor of EMT-6,[2]; [4],obviously inhibitory action
same,Inhibitmy rate,[3]; [5],13.30%
same,Tumor weight,[3]; [5],1.258 ± 0.254 g
same,Inhibitmy rate,[3]; [6],16.06%
same,Tumor weight,[3]; [6],1.218 ± 0.187 g
same,Inhibitmy rate,[3]; [7],52.45%
same,Tumor weight,[3]; [7],0.690 ± 0.128 g
same,Inhibitmy rate,[3]; 20 mg·kg^−1 intraperitoneal injection,70.71%
same,Inhibitmy rate,[3]; [8],68.57%
same,Tumor weight,[3]; [8],0.456 ± 0.128 g
same,Inhibitmy rate,[3]; [9],62.03%
same,Tumor weight,[3]; [9],0.551 ± 0.087 g
same,Inhibitmy rate,[3]; [10],56.65%
same,Tumor weight,[3]; [10],0.629 ± 0.068 g
same,Inhibitmy rate,[3]; [11],51.69%
same,Tumor weight,[3]; [11],0.701 ± 0.256 g
same,Inhibitmy rate,[3]; [12],31.22%
same,Tumor weight,[3]; [12],0.998 ± 0.212 g
same,Inhibitmy rate,[3]; 80 mg·kg^−1 intraperitoneal injection,18.06%
same,Inhibitmy rate,[3]; [13],13.23%
same,Tumor weight,[3]; [13],1.259 ± 0.124 g
same,Inhibitmy rate,[3]; [14],8.27%
same,Tumor weight,[3]; [14],1.331 ± 0.156 g
same,inhibitory action on mice-transplanted tumor of human brain glioma,[3]; [4],obviously inhibitory action
